Bridge positions count the residues as written; N and C are the ends. Square brackets hold non-standard residues; d marks the D form. Peptide text beside a SMILES is read from it. Hyp = O=C(O)[C@@H]1C[C@@H](O)CN1; Cit = NC(=O)NCCC[C@H](N)C(=O)O
How the values were obtained:
hAMY3 receptor = target: T1, hAMY3 receptor (Homo sapiens, UniProt O60896+P30988); assay: cAMP assay for in vitro receptor activation, hAMY3-R; assay type: cell-based; conditions: cAMP assay, hAMY3 receptor; read-out: hAMY3R EC50
T1 sequence (P30988 25-474): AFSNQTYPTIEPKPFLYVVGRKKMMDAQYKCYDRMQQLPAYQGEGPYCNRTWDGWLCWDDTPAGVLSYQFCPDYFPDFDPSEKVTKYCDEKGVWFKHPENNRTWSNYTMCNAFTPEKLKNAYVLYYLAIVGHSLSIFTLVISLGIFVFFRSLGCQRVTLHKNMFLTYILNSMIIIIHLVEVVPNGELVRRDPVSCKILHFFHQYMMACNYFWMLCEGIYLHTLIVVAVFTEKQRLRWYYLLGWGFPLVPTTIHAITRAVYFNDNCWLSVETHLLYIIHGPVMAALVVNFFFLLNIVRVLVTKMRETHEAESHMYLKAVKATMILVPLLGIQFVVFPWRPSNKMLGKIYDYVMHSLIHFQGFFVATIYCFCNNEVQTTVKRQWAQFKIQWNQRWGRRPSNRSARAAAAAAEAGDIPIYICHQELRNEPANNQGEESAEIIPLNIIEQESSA
T1 sequence (O60896 24-148 partner): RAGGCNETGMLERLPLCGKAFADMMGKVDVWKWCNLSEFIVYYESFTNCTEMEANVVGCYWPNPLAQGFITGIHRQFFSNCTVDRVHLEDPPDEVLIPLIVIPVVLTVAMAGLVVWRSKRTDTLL
Outline: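 Read-out is TR-FRET cAMP signal, recorded one hour after reagent addition, following 30 min room-temperature stimulation of stable hAMY3 cells with graded compound doses in casein/IBMX (0.5 mM) buffer.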

hAM1 receptor = hAM1 receptor (Homo sapiens, UniProt O60895+Q16602); assay: cAMP assay for in vitro receptor activation, hAM1-R; assay type: cell-based; conditions: cAMP assay, hAM1 receptor; read-out: hAM1R EC50
hAM1 receptor, sequence (Q16602 23-461): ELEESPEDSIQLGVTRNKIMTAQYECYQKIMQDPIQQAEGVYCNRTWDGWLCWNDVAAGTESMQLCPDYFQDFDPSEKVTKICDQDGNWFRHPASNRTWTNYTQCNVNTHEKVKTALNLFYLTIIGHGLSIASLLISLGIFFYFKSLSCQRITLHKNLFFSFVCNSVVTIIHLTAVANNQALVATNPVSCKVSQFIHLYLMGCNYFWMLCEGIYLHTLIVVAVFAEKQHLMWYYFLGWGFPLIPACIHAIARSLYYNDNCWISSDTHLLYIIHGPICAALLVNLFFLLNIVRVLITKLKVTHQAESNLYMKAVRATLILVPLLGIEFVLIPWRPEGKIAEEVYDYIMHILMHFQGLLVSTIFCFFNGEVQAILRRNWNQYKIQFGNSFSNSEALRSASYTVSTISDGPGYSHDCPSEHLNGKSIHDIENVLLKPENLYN
hAM1 receptor, sequence (O60895 43-175 partner): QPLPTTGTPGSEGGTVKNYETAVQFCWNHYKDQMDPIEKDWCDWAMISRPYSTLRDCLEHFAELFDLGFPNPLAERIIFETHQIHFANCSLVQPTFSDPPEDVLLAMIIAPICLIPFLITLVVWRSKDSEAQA
Outline: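 Stable hAM1 cells (monoclonal) plated 8000/well; buffer DPBS, 0.05% casein, 0.5 mM IBMX; cAMP read-out.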

[1] = Physical stability of peptide analogues (Thioflavin T fibrillation); assay type: physicochemical; conditions: maximum ThT signal normalized between hAMY maximum and buffer background; 40° C., shaking, four days; pH 7 per table title
Outline: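 Samples are stressed at 40 °C for four days, being shaken at 700 rpm before each 10-min fluorescence reading of 4 μM Thioflavin T. Buffers were pH 4 acetate or pH 7 phosphate. Reported values are smoothed maximum ThT signals as a percentage of the hAMY-to-background range.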

Row | SMILES | EC50 (hAMY3 receptor) [nM] | EC50 (hAM1 receptor) [nM] | Max ThT signal (%) [1] [%]
1 | CC[C@H](C)[C@H](NC(=O)[C@H](CCC(N)=O)NC(=O)[C@H](CCC(=O)O)NC(=O)[C@H](C)NC(=O)[C@H](CC(C)C)NC(=O)[C@H](CCCNC(=N)N)NC(=O)[C@H](C)NC(=O)[C@@H](NC(=O)[C@@H](NC(=O)[C@@H]1CSSC[C@H](NC(=O)[C@@H](N)CCCNC(=N)N)C(=O)N[C@@H](CCC(N)=O)C(=O)N[C@@H]([C@@H](C)O)C(=O)N[C@@H](CO)C(=O)N[C@@H]([C@@H](C)O)C(=O)N1)[C@@H](C)O)C(C)C)C(=O)N[C@@H](C)C(=O)N[C@@H](CCC(N)=O)C(=O)N[C@@H](Cc1ccc(O)cc1)C(=O)N[C@H](C(=O)N[C@@H](CC(=O)O)C(=O)N[C@@H](CCCCN)C(=O)N[C@@H](CC(=O)O)C(=O)N[C@@H](CCCCN)C(=O)N[C@@H](CC(=O)O)C(=O)N[C@@H](CCC(N)=O)C(=O)N[C@H](C(=O)N[C@@H](C)C(=O)N1CCC[C@H]1C(=O)N1CCC[C@H]1C(=O)N[C@H](C(=O)N[C@@H](CC(N)=O)C(=O)N[C@H](C(=O)NCC(=O)N[C@@H](CO)C(=O)N[C@@H](CC(N)=O)C(=O)N[C@@H](CO)C(=O)N1C[C@H](O)C[C@H]1C(N)=O)C(C)C)[C@@H](C)O)C(C)C)[C@@H](C)O [compound 32] (H-RCQTSTCTVARLAEQIAQYTDKDKDQVAPPTNVGSNS[Hyp]-NH2; disulfide 2-7; N-terminus assumed) | 0.008 | > 5000 | 5.300
2 | CC[C@H](C)[C@H](NC(=O)[C@H](CCC(N)=O)NC(=O)[C@H](Cc1c[nH]cn1)NC(=O)[C@H](C)NC(=O)[C@H](CC(C)C)NC(=O)[C@H](CCCNC(=N)N)NC(=O)[C@H](CCC(N)=O)NC(=O)[C@@H](NC(=O)[C@@H](NC(=O)[C@@H]1CSSC[C@H](NC(=O)CN)C(=O)N[C@@H](CCCNC(=N)N)C(=O)N[C@@H](Cc2c[nH]c3ccccc23)C(=O)NCC(=O)N[C@@H]([C@@H](C)O)C(=O)N1)[C@@H](C)O)C(C)C)C(=O)N[C@@H](Cc1ccc(O)cc1)C(=O)N[C@@H](CCC(N)=O)C(=O)N[C@@H](Cc1ccccc1)C(=O)N[C@H](C(=O)N[C@@H](CC(=O)O)C(=O)N[C@@H](CCCCN)C(=O)N[C@@H](Cc1ccccc1)C(=O)N[C@@H](CCCCN)C(=O)N[C@@H](CC(=O)O)C(=O)N[C@@H](CC(N)=O)C(=O)N[C@H](C(=O)N[C@@H](C)C(=O)N1CCC[C@H]1C(=O)N[C@@H](CCCNC(=N)N)C(=O)N[C@@H](CO)C(=O)N[C@@H](CCCCN)C(=O)N[C@H](C(=O)N[C@@H](CO)C(=O)N1CCC[C@H]1C(=O)N[C@@H](CCC(N)=O)C(=O)N[C@H](C(=O)N1C[C@H](O)C[C@H]1C(N)=O)[C@@H](C)O)[C@@H](C)CC)C(C)C)[C@@H](C)O [compound 171] (H-GCRWGTCTVQRLAHQIYQFTDKFKDNVAPRSKISPQT[Hyp]-NH2; disulfide 2-7; N-terminus assumed) | 0.064 | > 5000 | 5.000
3 | CC[C@H](C)[C@H](NC(=O)[C@H](CCC(N)=O)NC(=O)[C@H](Cc1c[nH]cn1)NC(=O)[C@H](C)NC(=O)[C@H](CC(C)C)NC(=O)[C@H](CCCNC(=N)N)NC(=O)[C@H](CCC(N)=O)NC(=O)[C@@H](NC(=O)[C@@H](NC(=O)[C@@H]1CSSC[C@H](NC(=O)CN)C(=O)N[C@@H](CCCNC(=N)N)C(=O)N[C@@H]([C@@H](C)O)C(=O)NCC(=O)N[C@@H]([C@@H](C)O)C(=O)N1)[C@@H](C)O)C(C)C)C(=O)N[C@@H](Cc1ccc(O)cc1)C(=O)N[C@@H](CCC(N)=O)C(=O)N[C@@H](Cc1ccccc1)C(=O)N[C@H](C(=O)N[C@@H](CC(N)=O)C(=O)N[C@@H](CCCCN)C(=O)N[C@@H](CC(=O)O)C(=O)N[C@@H](CCCCN)C(=O)N[C@@H](CC(=O)O)C(=O)N[C@@H](CC(N)=O)C(=O)N[C@H](C(=O)N[C@@H](C)C(=O)N1CCC[C@H]1C(=O)N[C@@H](CCCNC(=N)N)C(=O)N[C@@H](CO)C(=O)N[C@@H](CCCCN)C(=O)N[C@H](C(=O)N[C@@H](CO)C(=O)N1CCC[C@H]1C(=O)N[C@@H](CCC(N)=O)C(=O)N[C@@H](Cc1ccccc1)C(=O)N1C[C@H](O)C[C@H]1C(N)=O)[C@@H](C)CC)C(C)C)[C@@H](C)O [compound 238] (H-GCRTGTCTVQRLAHQIYQFTNKDKDNVAPRSKISPQF[Hyp]-NH2; disulfide 2-7; N-terminus assumed) | 0.235 | > 5000 | 0.600

Now from value to compound:

Row | EC50 (hAMY3 receptor) [nM] | EC50 (hAM1 receptor) [nM] | Max ThT signal (%) [1] [%] | SMILES
4 | 0.03 | > 5000 | 26.550 | CC[C@H](C)[C@H](NC(=O)[C@H](CCC(N)=O)NC(=O)[C@H](Cc1c[nH]cn1)NC(=O)[C@H](C)NC(=O)[C@H](CC(C)C)NC(=O)[C@H](CCCNC(N)=O)NC(=O)[C@H](CCC(N)=O)NC(=O)[C@@H](NC(=O)[C@@H](NC(=O)[C@@H]1CSSC[C@H](NC(=O)[C@@H](N)CCCCN)C(=O)N[C@@H](CC(N)=O)C(=O)N[C@@H]([C@@H](C)O)C(=O)N[C@@H](C)C(=O)N[C@@H]([C@@H](C)O)C(=O)N1)[C@@H](C)O)C(C)C)C(=O)N[C@@H](Cc1ccc(O)cc1)C(=O)N[C@@H](CCC(N)=O)C(=O)N[C@@H](Cc1ccccc1)C(=O)N[C@@H](CC(=O)O)C(=O)N[C@@H](CCCCN)C(=O)N[C@@H](CC(=O)O)C(=O)N[C@@H](CCCCN)C(=O)N[C@@H](CC(=O)O)C(=O)N[C@@H](CC(N)=O)C(=O)N[C@H](C(=O)N[C@@H](C)C(=O)N1CCC[C@H]1C(=O)N1CCC[C@H]1C(=O)N[C@H](C(=O)N[C@@H](CC(N)=O)C(=O)N[C@H](C(=O)NCC(=O)N[C@@H](CO)C(=O)N[C@@H](CC(N)=O)C(=O)NCC(=O)N1C[C@H](O)C[C@H]1C(N)=O)C(C)C)[C@@H](C)O)C(C)C [compound 265] (H-KCNTATCTVQ[Cit]LAHQIYQFDKDKDNVAPPTNVGSNG[Hyp]-NH2; disulfide 2-7; N-terminus assumed)
5 | 0.153 | > 5000 | 6.500 | CC[C@H](C)[C@H](NC(=O)[C@H](CCC(N)=O)NC(=O)[C@H](Cc1c[nH]cn1)NC(=O)[C@H](C)NC(=O)[C@H](CC(C)C)NC(=O)[C@H](CCCNC(=N)N)NC(=O)[C@H](CCC(N)=O)NC(=O)[C@@H](NC(=O)[C@@H](NC(=O)[C@@H]1CSSC[C@H](NC(=O)CN)C(=O)N[C@@H](CCCNC(=N)N)C(=O)N[C@@H]([C@@H](C)O)C(=O)NCC(=O)N[C@@H]([C@@H](C)O)C(=O)N1)[C@@H](C)O)C(C)C)C(=O)N[C@@H](Cc1c[nH]c2ccccc12)C(=O)N[C@@H](CCC(N)=O)C(=O)N[C@@H](Cc1ccccc1)C(=O)N[C@H](C(=O)N[C@@H](CC(=O)O)C(=O)N[C@@H](CCCCN)C(=O)N[C@@H](Cc1ccccc1)C(=O)N[C@@H](CCCCN)C(=O)N[C@@H](CC(=O)O)C(=O)N[C@@H](CC(N)=O)C(=O)N[C@H](C(=O)N[C@@H](C)C(=O)N1CCC[C@H]1C(=O)N[C@@H](CCCNC(=N)N)C(=O)N[C@@H](CO)C(=O)N[C@@H](CCCCN)C(=O)N[C@H](C(=O)N[C@@H](CO)C(=O)N1CCC[C@H]1C(=O)N[C@@H](CCC(N)=O)C(=O)N[C@H](C(=O)N1C[C@H](O)C[C@H]1C(N)=O)[C@@H](C)O)[C@@H](C)CC)C(C)C)[C@@H](C)O [compound 213] (H-GCRTGTCTVQRLAHQIWQFTDKFKDNVAPRSKISPQT[Hyp]-NH2; disulfide 2-7)

— US12139520B2 (priority 2020, dated 2024)
